According to US6797698B1, “Method of treating prolonged critical illness and other conditions having a similar neuroendocrine pattern” (K.U. Leuven Research & Development, priority 1998, dated 2004):

What was measured:
[1] = test system: GH secretion and GH-dependent parameters; assay: 21 h (21-45 h) infusion in protracted critical illness: GH secretion and GH-dependent parameters; type: in vivo, human
Protocol: The inventors have also shown that infusion of GHRP-2 for 21 h in this condition increases pulsatile GH secretion >6-fold, associated with increases in IGF-I, IGFBP-3 and ALS. […] This observation strongly favors the presence of active feedback inhibition preventing overcorrection of the somatotropic axis with this strategy. Treatment with high doses of recombinant human GH has recently shown to increase morbidity and mortality of critical illness. The inability to overtreat with GH-secretagogues is an important advantage over exogenous GH, especially in the vulnerable critically ill elderly.

[2] = test system: TSH secretion and thyroid hormone levels; assay: 21 h (21-45 h) infusion in protracted critical illness: TSH secretion and thyroid hormones; type: in vivo, human; details: 21 h infusion
catabolism = assay: LHRH effect on catabolism resulting from testosterone deficiency; details: in vivo
From the text: Optionally the administration of GHRP and TRH can be supplemented with Luteinizing Hormone Releasing Hormone (LHRH). A shortage of pulsatile LH secretion can lead to testosterone deficiency in males, which in turn can cause an increase in catabolism.

## NC(=O)[C@@H]1CCCN1C(=O)[C@H](Cc1cnc[nH]1)NC(=O)[C@@H]1CCC(=O)N1 [TRH, Thyroid Releasing Hormone]
[1]; 21 h infusion
  GH-dependent parameters (in words): did not alter
[2]
  TSH secretion (in words): increasing
  thyroid hormone levels (in words): increasing

## GHRP-2
[1]; infusion for 21 h
  ALS (in words): increases
  IGF-I (in words): increases
  IGFBP-3 (in words): increases
  increase in pulsatile GH secretion: > 6 fold

## Luteinizing Hormone Releasing Hormone (QHWSYGLRPG; Gonadoliberin-1; UniProt P01148 24-33, looked up) [LHRH, Luteinizing Hormone Releasing Hormone, optional supplement to GHRP and TRH]
catabolism
  effect on catabolism that results from testosterone deficiency (in words): no effect
